Experimental findings from EP0446604A2, “Pyridine and related aza heterocycle derivatives as cardiovascular agents” (AMERICAN CYANAMID COMPANY, priority 1990, dated 1991) are described below.

Assay [1] concerns the target T1, thromboxane synthetase enzyme (Rattus norvegicus, UniProt P49430).
T1 construct: from tissue; host or cells: washed blood platelets from Okamoto-Aoki spontaneously hypertensive rats (SHR)
T1 sequence (P49430 1-533): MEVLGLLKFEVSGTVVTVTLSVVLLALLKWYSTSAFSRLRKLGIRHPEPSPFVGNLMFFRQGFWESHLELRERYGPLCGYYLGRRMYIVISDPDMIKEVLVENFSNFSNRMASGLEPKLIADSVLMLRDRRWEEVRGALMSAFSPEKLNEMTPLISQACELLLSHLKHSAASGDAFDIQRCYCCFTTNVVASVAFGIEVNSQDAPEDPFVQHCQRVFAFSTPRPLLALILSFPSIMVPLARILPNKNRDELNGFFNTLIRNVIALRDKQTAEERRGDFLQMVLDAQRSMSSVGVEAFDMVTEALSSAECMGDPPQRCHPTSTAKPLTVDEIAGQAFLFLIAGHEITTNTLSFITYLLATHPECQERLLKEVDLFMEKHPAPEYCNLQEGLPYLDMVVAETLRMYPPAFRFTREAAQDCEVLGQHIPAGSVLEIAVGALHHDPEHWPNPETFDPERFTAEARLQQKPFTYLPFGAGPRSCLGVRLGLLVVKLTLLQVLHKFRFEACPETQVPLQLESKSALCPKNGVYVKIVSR
The assay is described as follows: Inhibition of thromboxane (TXB2) formation in washed rat platelets, TXB2 radioimmunoassay. It is filed as biochemical, Okamoto-Aoki spontaneously hypertensive rats (SHR). As to conditions: Concentration 1x10^-4M, platelet suspension incubated 10 minutes at 37 °C. The protocol:
Under urethan anesthesia, […] of arterial blood from Okamoto-Aoki spontaneously hypertensive rats (SHR) (Taconic Farms, Germantown, NY) between 19 and 24 weeks in age is collected in one ml of 3.2% sodium citrate in a polystyrene tube. The blood is diluted with 3 ml of cold saline and centrifuged at room temperature for 15 minutes at 460xg. The platelet rich plasma (PRP) is separated. The platelets are isolated by centrifuging the PRP for 10 minutes at 1060xg and are washed in 4 ml of cold oxygenated Krebs phosphate buffer, pH 7.4. The chilled platelets, recovered from centrifuging at 800xg for 10 minutes, are resuspended in oxygenated Krebs phosphate buffer and diluted to contain 4.5-6.0 x 10⁴ platelets/µ1. The inhibition of thromboxane (TX) formation is studied by determining the concentration of thromboxane B₂ (TXB₂), the stable hydrolysis product of TXA₂. Assay samples, prepared on ice, contain 200 µ1 platelet suspension, 50 µ1 saline, and 50 µ1 vehicle (saline) or drug under study. The samples are incubated for 10 minutes at 37 °C in a metabolic shaker. The reaction is terminated by immersing the tubes in an ice bath and adding 50 µl of 0.5M citric acid. The samples are centrifuged for 10 minutes in a refrigerated centrifuge and the supernatants thus obtained are decanted and stored at -20 °C. The TXB₂ content for each sample is determined by a direct radioimmunoassay (RIA) utilizing a TXB₂ specific RIA kit purchased from New England Nuclear, Boston, MA and expressed as pg TXB₂ formed per minute per sample, from which the percent inhibition of TXB₂ formation is calculated.

Assay [2] relates to Male mice of the Swiss Webster Strain. The assay can be described thus: Potassium chloride-induced arrhythmia in anesthetized mice (survival). It is filed as in vivo. As to conditions: Mus musculus, iv, Dose = 10 mg/kg i.v.; potassium chloride 62.5 mg/kg i.v. bolus 5, 15 or 30 minutes after drug; observed 15 minutes; read-out: KCl #Mice Surviving #Mice Tested (converted). The source says: (§1) Intravenous administration of high doses of calcium or potassium chloride in animals produces cardiac arrhythmias, cardiac fibrillation and cardiac arrest. Any agent that can prevent these events is considered an antiarrhythmic/antifibrillatory agent. (Meth. and Find Exptl. Clin Pharmacol.2:223-252(1980); Pharmacol, Ther. 24:401-433 (1984); Experimental Cardiac and Antiarrhythmic Drugs, L. Szekeres and Gy. J. Dapp, Akademiai Kiado Preso, Budapest, 9-448 (1971).)
(§2) The method employed is as follows: Male mice of the Swiss Webster Strain (Charles River, Wilmington, MA) weighing 25-35 g are anesthetized with ethyl carbamate (urethan) (1.5g/kg body weight i.p.). A 25-gauge needle attached to PE-20 tubing is inserted into a caudal vein for drug administration. The lead II ECG is recorded by needle electrodes placed subcutaneously in the limbs. All data is collected on a Gould Brush recorder. Animals are observed 5 minutes before drug administration. A 5, 15, or 30 minute period following drug administration is allowed before the bolus injection of calcium chloride, 200 mg/kg i.v. or potassium chloride, 62.5 mg/kg i.v. Control mice receive 4 ml/kg of 0.9% sodium chloride i.v. Mice are observed an additional 15 minutes for arrhythmias, fibrillation, survival or death. Any compound at a dose of less than 20 mg/kg i.v. that protects 3 out of 6 mice from cardiac death in either the potassium or calcium chloride test, is considered active.

Assay [3] has the same test system. The assay can be described thus: Calcium chloride-induced arrhythmia in anesthetized mice (survival). It is filed as in vivo. The conditions noted are these: Mus musculus, iv, Dose = 10 mg/kg i.v.; calcium chloride 200 mg/kg i.v. bolus 5, 15 or 30 minutes after drug; observed 15 minutes; read-out: CaCl2 #Mice Surviving #Mice Tested (converted).
From the text: as §1, §2

Structures can show the parent of a compound that is named as a salt.

In assay [1], `c1cnc2nc(NCCCn3ccnc3)ccc2c1` [Example 27, N-[3-(1H-Imidazol-1-yl)propyl]-1,8-naphthyridin-2-amine,(E)-2-butenedioate (1:2)] displayed an inhibition at 100 µM of 90%.
Regarding `CC(=O)c1cc(C#N)c(NCCCn2ccnc2)nc1C` [Example 12, 5-Acetyl-2-[[3-(1H-Imidazol-1-yl)propyl]amino]-6-methyl-3-pyridinecarbonitrile], the values for the responders at 10 mg/kg in assay [2] and in assay [3] were 66.7% and 16.7%, respectively. For the same compound, the inhibition at 100 µM in assay [1] was 96%.
Consider `Cc1ccc(C#N)c(NCCCCc2cccnc2)n1` [Example 108, 6-Methyl-2-[[4-(3-pyridinyl)butyl]amino]-3-pyridinecarbonitrile], for which the responders at 10 mg/kg is 83.3% in assay [2] and 66.7% in assay [3]. Also, in assay [1], at 100 µM the inhibition was 96%.
In the case of `Cc1ccc(C#N)c(NCCC(C)n2ccnc2)n1` (stereo not drawn) [Example 85, 2-[[3-(1H-Imidazol-1-yl)butyl]amino]-6-methyl-3-pyridinecarbonitrile, dihydrochloride], the figures for the responders at 10 mg/kg in assay [2] and in assay [3] were 83.3% and 33.3%, respectively.
Regarding `N#Cc1ccc(NCCCn2ccnc2)nc1` [Example 45, 6-[[3-(1H-Imidazol-1-yl)propyl]amino]-3-pyridinecarbonitrile], at 100 µM the inhibition in assay [1] was 92%.
As for `Cc1ccc(C#N)c(NCC(C)Cn2ccnc2)n1` (stereo not drawn) [Example 84, 2-[[3-(1H-Imidazol-1-yl)-2-methylpropyl]amino] 6-methyl-3-pyridinecarbonitrile, dihydrochloride], the responders at 10 mg/kg in assay [2] is 83.3%; in assay [3], 50%.
With `c1ccc(-c2cc(NCCCCc3cccnc3)nc3ccccc23)cc1` [Example 110, 4-Phenyl-N-[4-(3-pyridinyl)butyl]-2-quinolinamine], 100 µM produced 99% inhibition in assay [1].
`Clc1cccc(NCCCn2ccnc2)n1` [Example 47, 6-Chloro-N-[3-(1H-imidazol-1-yl)propyl]-2-pyridinamine] had an inhibition at 100 µM in assay [1] of 91%.
Compound `CC(=O)N(CCCn1ccnc1)c1cc(C)c2ccccc2n1` [Example 83, N-[3-(1H-Imidazol-1-yl)propyl]-N-(4-methyl-2-quinolinyl)acetamide,monoacetate] displayed an inhibition at 100 µM in assay [1] of 90%.
Regarding `Cc1cc(C)c2ccc(NCCCn3ccnc3)nc2n1` [Example 24, N-[3-(1H-Imidazol-1-yl)propyl]-5,7-dimethyl-1,8-naphthyridin-2-amine, (E)-2-butenedioate (1:2)], the figures for the responders at 10 mg/kg in assay [2] and in assay [3] were 100% and 16.7%, respectively. The inhibition at 100 µM in assay [1] was determined as 93%.
Compound `Cc1cccc2c(-c3ccccc3)cc(NCCCn3ccnc3)nc12` [Example 51, N-[3-(1H-Imidazol-1-yl)propyl]-8-methyl-4-phenyl-2-quinolinamine] showed an inhibition at 100 µM in assay [1] of 89%.
With `Cc1cccc2c(-c3ccccc3)cc(NCCCCc3cccnc3)nc12` [Example 111, 8-Methyl-4-phenyl-N-[4-(3-pyridinyl)butyl]-2-quinolinamine], in assay [1], the inhibition at 100 µM stood at 85%.
Consider `CC(CCNc1nc2ccccc2c2ccccc12)n1ccnc1` (stereo not drawn) [Example 89, N-[3-(1H-Imidazol-1-yl)butyl]-6-phenanthridinamine], for which the inhibition at 100 µM in assay [1] came out at 98%.
Take `N#Cc1ccc(NCCCn2ccnc2)nc1-c1cccc(C(F)(F)F)c1` [Example 71, 6-[[3-(1H-Imidazol-1-yl)propyl]amino]-2-[3-(trifluoromethyl)phenyl]-3-pyridinecarbonitrile, (E)-2-butenedioate (1:1)]: in assay [1], the inhibition at 100 µM was 100%.
For the compound `NC(=O)c1ccc(NCCCn2ccnc2)nc1` [Example 46, 6-[[3-(1H-Imidazol-1-yl)propyl]amino]-3-pyridinecarboxamide], at 100 µM the inhibition in assay [1] was 80%.
Turning to `Cc1ccc(C#N)c(NCCc2ccncc2)n1` [Example 97, 6-Methyl-2-[[2-(4-pyridinyl)ethyl]amino]-3-pyridinecarbonitrile, dihydrochloride], the results for the responders at 10 mg/kg in assay [2] and in assay [3] were 50% and 0%, respectively.
Regarding `c1ccc(-c2cc(NCCCn3ccnc3)nc3ccccc23)cc1` [Example 44, N-[3-(1H-Imidazol-1-yl)propyl]-4-phenyl-2-quinolinamine], in assay [1], 100 µM produced 100% inhibition.
Compound `c1ccc(-n2nc3ccc(NCCCn4ccnc4)nc3n2)cc1` [Example 56, N-[3-(1H-Imidazol-1-yl)propyl]-2-phenyl-2H-1,2,3-triazolo[4,5-b]pyridin-5-amine] yielded an inhibition at 100 µM in assay [1] of 95%.
As for `Cc1cc(NCCc2cccnc2)nc2ccccc12` [Example 95, 4-Methyl-N-[2-(3-pyridinyl)ethyl]-2-quinolinamine,dihydrochloride], the values for the responders at 10 mg/kg in assay [2] and in assay [3] were 66.7% and 16.7%, respectively.
With `N#Cc1ccc(-c2cccc(C(F)(F)F)c2)nc1NCCCn1ccnc1` [Example 18, 2-[[3-(1H-Imidazol-1-yl)propyl]amino]-6-[3-(trifluoromethyl)phenyl]-3-pyridinecarbonitrile], in assay [1], testing at 100 µM gave an inhibition of 98%.
Turning to `CC(=O)N(CCCn1ccnc1)c1ccc([N+](=O)[O-])cn1` [Example 58, N-[3-(1H-Imidazol-1-yl)propyl]-N-(5-nitro-2-pyridinyl)acetamide], in assay [1], at 100 µM the inhibition was 83%.
`N#Cc1ccc(-c2ccncc2)nc1NCCCn1ccnc1` [Example 52, 2-[[3-(1H-Imidazol-1-yl)propyl]amino]-6-(4-pyridinyl)-3-pyridinecarbonitrile] displayed an inhibition at 100 µM in assay [1] of 85%.
For `O=[N+]([O-])c1ccc(Cl)nc1NCCCn1ccnc1` [Example 57, 6-Chloro-N-[3-(1H-imidazol-1-yl)propyl]-3-nitro-2-pyridinamine, monohydrochloride], testing at 100 µM in assay [1] gave an inhibition of 94%.
`Cc1cccc(NCCCn2ccnc2)n1` [Example 10, N-[3-(1H-Imidazol-1-yl)propyl]-6-methyl-2-pyridinamine,(E)-2-butenedioate (2:3)]: the responders at 10 mg/kg in assay [2] is 50%; in assay [3] it was 0%.
In turn, `Cc1ccc(C#N)c(NCc2ccncc2)n1` [Example 93, 6-Methyl-2-[(4-pyridinylmethyl)amino]-3-pyridinecarbonitrile] registered an inhibition at 100 µM in assay [1] of 86%.
`Cc1cc(C)c2ccc(NCCCCc3cccnc3)nc2n1` [Example 109, 5,7-Dimethyl-N-[4-(3-pyridinyl)butyl]-1,8-naphthyridin-2-amine,(E)-2-butenedioate (1:2)] had an inhibition at 100 µM in assay [1] of 97%.
On the same count and under the same terms, next, `O=[N+]([O-])c1cccnc1NCCCCc1ccncc1` [compound 100]: 88%; `Cc1ccc(C#N)c(NCc2cccnc2)n1` [Example 91, 6-Methyl-2-[(3-pyridinylmethyl)amino]-3-pyridinecarbonitrile]: 81%.

In general, inhibition refers to the percentage by which the read-out fell short of the control. Higher therefore signals strong suppression.
